Experimental data taken from patent US20160102052A1, “Use of Cysteamine in Treating Infections caused by Yeasts/Moulds” (priority 2014, published 2016).

What was measured:
Experiment in all cases: MIC of clinical antifungals, CLSI M38-A2 broth microdilution
Type in all cases: cell-based
[1] = test system: Exophiala dermatitidis CA01; settings: RPMI-1640, 35° C.; for MIC: read-out: MIC100
Method: (§1) Two Candida spp. strains (C. krusei ATCC6258 & C. parapsilosis ATCC22019) and Exophiala jeanselmei reference strain NCPF2377 were also tested. These acted as quality control strains. Flat-bottomed Nunc Plates were prepared containing a serial doubling dilution of antifungals at 2× final concentration. […] These were incubated at 35° C. and read at 24 h and 48 h (Candida spp.) or 120 h (Exophiala spp.) on a BioTek plate reader at 530 nm. • 7. Culture of Candida spp. grown on Sabouraud dextrose agar slope overnight at 30° C. • 8. Exophiala cultures grown on potato dextrose agar slope for 6 days at 35° C. • 9. Cultures were removed from incubator and 2 ml sterile 0.15M NaCl was added to the overnight culture and spore and hyphal suspensions were harvested from the surface of the agar and transferred to a sterile plastic bijou tube. • a. Exophiala spp. cultures were allowed to rest for up to 10 min, allowing hyphae to settle to the bottom. The top layers of spores were transferred to a sterile plastic bijou tube. • 10. […] This is continued to A12 where 100 μl is removed and discarded. • f. This dilution series was repeated in rows B-D for the remaining 3 cultures • g. 0.5 McFarland Standard added to wells E1-E3 • h. Plate read at OD530 on BioTek. • i. Concentration of cells required will be the one that is the equivalent to the 0.5 McFarland Standard • 11. […] • 7. The highest final concentration on the plate will be as described in layouts at the end of the protocol. […] Wells A1-A3 and A7-A9 are prepared by the addition of 200 μl highest concentration of compound to the wells. • 10. All other wells contain 100 μl sterile dH2O. • 11. Serial dilutions are carried out from A1-A3 to B1-B3 whereby 100 μl is removed from A1-A3 and placed into B1-B3 and mixed well by pipetting. Then take 100 μl B1-B3 and place in C1-C3 and mix well. Take 100 μl from C1-C3 and add to D1-D3 and mix well. […] At H1-[…] μl is removed and added to A4-A6. The dilution series is carried down the plate in the same manner to wells G4-G6 where a final 100 μl is removed and discarded. H4-H6 contain water alone and will be untreated controls. • 12. The same procedure is repeated for the wells in columns A7-A9 and A10-A12. See plate layout at bottom of page. Inoculating Plates with Candida spp./Exophiala spp. • 5. […] Plates are read in the BioTek at OD530 nm. • 7. Plates are then placed in a plastic box which contains either a Petri dish of water. The box is sealed and incubated at 35° C. (Exophiala spp.) or 30° C. (Candida spp.). The presence of the water in the dish or on the tissue provides and environment of relatively high humidity. • 8. The OD530 of the Candida spp. plates are read after 24 h and 48 h, while the slower growing Exophiala spp. plates are read after 96 h and 120 h. • 9. Raw BioTek data is transformed using Gen5 software and represented graphically using GraphPad Prism 4 software and MICs determined.

[2] = test system: Exophiala jeanselmei NCPF 2377; settings: NCPF2377, RPMI-1640, 35° C.; for MIC: read-out: MIC100
Method: as §1

[3] = test system: Candida parapsilosis ATCC 22019; settings: Lodderomyces parapsilosis; for MIC50 / MIC80: ATCC22019, RPMI-1640; for MIC: ATCC22019, RPMI-1640, read-out: MIC100
Method: as §1

Candida krusei ATCC 6258 = settings: Pichia kudriavzevii; for MIC50 / MIC80: ATCC6258, RPMI-1640; for MIC: ATCC6258, RPMI-1640, read-out: MIC100
Method: as §1

MIC50 [1] | MIC80 [1] | MIC [1] | MIC50 [2] | MIC80 [2] | MIC [2] | MIC50 [3] | MIC80 [3] | MIC [3] | MIC50 (Candida krusei ATCC 6258) | MIC80 (Candida krusei ATCC 6258) | MIC (Candida krusei ATCC 6258) | Structure (SMILES)
2 µg/mL | > 32 µg/mL | > 32 µg/mL | 0.125 µg/mL | 0.25 µg/mL | 0.25 µg/mL | 0.008 µg/mL | 0.016 µg/mL | 0.125 µg/mL | 0.004 µg/mL | 0.125 µg/mL | 0.25 µg/mL | CCC(C)n1ncn(-c2ccc(N3CCN(c4ccc(OCC5COC(Cn6cncn6)(c6ccc(Cl)cc6Cl)O5)cc4)CC3)cc2)c1=O (stereo not drawn) [Itraconazole]
16 µg/mL | 32 µg/mL | 32 µg/mL | 0.125 µg/mL | 64 µg/mL | > 64 µg/mL | 1 µg/mL | 2 µg/mL | 64 µg/mL | 0.5 µg/mL | 1 µg/mL | 1 µg/mL | CC[C@H](C)C[C@H](C)CCCCCCCCC(=O)N[C@H]1C[C@@H](O)[C@@H](NCCN)NC(=O)[C@@H]2[C@@H](O)CCN2C(=O)[C@H]([C@H](O)CCN)NC(=O)[C@H]([C@H](O)[C@@H](O)c2ccc(O)cc2)NC(=O)[C@@H]2C[C@@H](O)CN2C(=O)[C@H]([C@@H](C)O)NC1=O [Caspofungin]
250 µg/mL | 500 µg/mL | 500 µg/mL | 250 µg/mL | 500 µg/mL | 1000 µg/mL | 0.5 µg/mL | 1 µg/mL | 3.9 µg/mL | 31.2 µg/mL | 62.5 µg/mL | 62.5 µg/mL | OC(Cn1cncn1)(Cn1cncn1)c1ccc(F)cc1F [Fluconazole]
